US20250332173A1, “COMPOUNDS AND METHODS FOR MODULATING NUCLEIC ACID SPLICING” (REMIX THERAPEUTICS INC., priority 2021, published 2025)
pIC50: −log10 of the molar value. Where two headings read alike, the source gives them in different places.

Columns and labels:
HTT = experiment: HiBiT protein abundance assay, HTT HiBiT K562 cell line; assay type: cell-based, human; settings: 24 hours, top dose 10 μM
In short: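 K562 knock-in lines with endogenous HiBiT-tagged target, 10,000 cells/well in IMDM + FBS, treated 24 h at 37° C with 10-point 3-fold dilutions (top 10 μM final; DMSO ≤0.25%). Lytic Nano-Glo HiBiT luminescence normalized to untagged K562 baseline and DMSO controls; IC50 = concentration giving 50% abundance via four-parameter fit.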

SMN2 mRNA = experiment: RT-qPCR splicing assay, SMN2 canonical junction (CJ) mRNA; assay type: cell-based, human; settings: Homo sapiens
In short: (§1)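 Canonical-junction transcript levels in compound-treated A673 or K562 cells (24 h, up to 10 uM final) were determined from lysates by RT-qPCR with housekeeping-gene normalization.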

[1] = tested on: K562 (human chronic myelogenous leukemia) cells; experiment: Cell Titer Glo 2.0 cell viability assay; assay type: cell-based; settings: Homo sapiens, K562, 72 h, K562 cells, 72 hours, Cell Titer Glo 2.0; read-out: K562 GI50
Target C = experiment: RT-qPCR splicing assay panel, Target C canonical junction (CJ) mRNA; assay type: cell-based, human; settings: Homo sapiens
In short: as §1

[2] = HiBiT lytic detection, modified K562 cells, read-out: Effect on protein abundance, HTT (IC50)
[3] = canonical junction qPCR panel, Table 5, read-out: SMN2 (decrease in CJ mRNA levels, IC50)
[4] = canonical junction qPCR panel, Table 5, read-out: Target C (decrease in CJ mRNA levels, IC50)
[5] = HiBiT K562 cell line, read-out: Effect on protein abundance, HTT (IC50 category)
[6] = Table 5 panel, canonical junction qPCR, compound concentration having 50% response in CJ decrease, read-out: SMN2 IC50 (decrease in CJ mRNA levels)
[7] = Table 5 panel, canonical junction qPCR, compound concentration having 50% response in CJ decrease, read-out: Target C IC50 (decrease in CJ mRNA levels)

With `COc1cc(-c2ccc3c(=O)n([C@H]4CCN[C@@H](C)C4)ccc3n2)nn2cc(C)nc12` [Compound 1519, 2-(8-methoxy-2-methyl-imidazo[1,2-b]pyridazin-6-yl)-6-[(2S,4S)-2-methyl-4-piperidyl]-1,6-naphthyridin-5-one] the pIC50 (HTT; [2]) was > 7.00, the pIC50 (SMN2 mRNA; [3]) was > 7.00 and the GI50 [1] was 100 to 1000 nM. The pIC50 (Target C; [4]) was 6.00 to 7.00.
With `O=C1c2ccc(-c3cn[nH]c3)cc2CCN1C1CCNCC1` [Compound 220, 2-(piperidin-4-yl)-6-(1H-pyrazol-4-yl)-3,4-dihydroisoquinolin-1-one] the pIC50 (HTT; [5]) was < 5.00, the pIC50 (SMN2 mRNA; [6]) was < 5.00 and the GI50 [1] was > 10000 nM. The pIC50 (Target C; [7]) was < 5.00.
For `Cc1c(O)c(-c2ccc3c(=O)n(C4CCNC4)cc(C)c3n2)cc2cn(C)nc12` (stereo not drawn) [Compound 1467], the pIC50 (HTT; [2]) was 6.00 to 7.00, the pIC50 (SMN2 mRNA; [3]) was > 7.00 and the GI50 [1] was 100 to 1000 nM. The pIC50 (Target C; [4]) was < 5.00.
`Cc1c(O)c(-c2ncc3c(=O)n([C@H]4CC[C@@H](N(C)C)CC4)ccc3n2)cc2cn(C)nc12` [Compound 1460, 6-((1s,4s)-4-(dimethylamino)cyclohexyl)-2-(6-hydroxy-2,7-dimethyl-2H-indazol-5-yl)pyrido[4,3-d]pyrimidin-5(6H)-one] was tested, and the pIC50 (HTT; [5]) was 6.00 to 7.00, the pIC50 (SMN2 mRNA; [3]) was > 7.00 and the GI50 [1] was 100 to 1000 nM. It also gave a pIC50 (Target C; [4]) of 5.00 to 6.00.
Work on `Cc1cn2cc(-n3cnc4cc(N5CCNCC5)ccc4c3=O)cc(F)c2n1` [Compound 228] yielded a pIC50 (HTT; [5]) of 6.00 to 7.00, a pIC50 (SMN2 mRNA; [6]) of 6.00 to 7.00 and a GI50 [1] of 100 to 1000 nM. It also gave a pIC50 (Target C; [7]) of 6.00 to 7.00.
For `Cc1cn2nc(-c3ccc4c(=O)n(C5CCN(CCO)C6(CC6)C5)ncc4n3)cc(C)c2n1` (stereo not drawn) [Compound 1541, 2-(2,8-dimethylimidazo[1,2-b]pyridazin-6-yl)-6-[4-(2-hydroxyethyl)-4-azaspiro[2.5]octan-7-yl]pyrido-[2,3-d]pyridazin-5-one], the pIC50 (HTT; [5]) was > 7.00, the pIC50 (SMN2 mRNA; [3]) was > 7.00 and the GI50 [1] was 1000 to 10000 nM. For the same molecule, the pIC50 (Target C; [4]) was 6.00 to 7.00.
With `Cc1cc(-c2ccc3ncn(C4CCN(C)CC4)c(=O)c3c2)cc2cn(C)nc12` [Compound 2170] the pIC50 (HTT; [2]) was < 5.00, the pIC50 (SMN2 mRNA; [3]) was < 5.00 and the GI50 [1] was > 10000 nM. The pIC50 (Target C; [4]) was < 5.00.
Molecule `Cc1cn2nc(-c3ccc4c(=O)n(C5CCN(CCF)C6(CC6)C5)ncc4n3)cc(C)c2n1` (stereo not drawn) [Compound 1542, 2-(2,8-dimethylimidazo[1,2-b]pyridazin-6-yl)-6-[4-(2-fluoroethyl)-4-azaspiro[2.5]octan-7-1]pyrido[2,3-d]pyridazin-5-one] has a pIC50 (HTT; [2]) of 6.00 to 7.00, a pIC50 (SMN2 mRNA; [3]) of 6.00 to 7.00 and a GI50 [1] of 1000 to 10000 nM. For the same molecule, the pIC50 (Target C; [4]) was 5.00 to 6.00.
For `CN1CCC(n2cnc3cc(-c4cc(F)c5nn(C)cc5c4)ccc3c2=O)CC1` [Compound 209], the pIC50 (HTT; [5]) was < 5.00, the pIC50 (SMN2 mRNA; [6]) was > 7.00 and the GI50 [1] was 1000 to 10000 nM. It also gave a pIC50 (Target C; [7]) of 5.00 to 6.00.
In the case of `Cc1cn2cc(-c3ncc4c(=O)n([C@H]5CCNC6(CC6)C5)ccc4n3)cc(F)c2n1` [Compound 1458, 6-[(7S)-4-azaspiro[2.5]octan-7-yl]-2-(8-fluoro-2-methyl-imidazo[1,2-a]pyridin-6-yl)pyrido[4,3-d]pyrimidin-5-one], the pIC50 (HTT; [5]) was 6.00 to 7.00, the pIC50 (SMN2 mRNA; [3]) was > 7.00 and the GI50 [1] was 100 to 1000 nM. It also gave a pIC50 (Target C; [4]) of 6.00 to 7.00.
`Cc1cn2cc(-c3ccc4c(=O)n(C5CCNCC5)cnc4c3)cc(F)c2n1` [Compound 205] was tested, and the pIC50 (HTT; [5]) was 6.00 to 7.00, the pIC50 (SMN2 mRNA; [6]) was > 7.00 and the GI50 [1] was 100 to 1000 nM. It also gave a pIC50 (Target C; [7]) of 6.00 to 7.00.
Molecule `Cc1c(O)c(-c2nc(C)c3c(=O)n([C@@H]4CCNC5(CC5)C4)ccc3n2)cc2cn(C)nc12` [Compound 1515, (R)-2-(6-hydroxy-2,7-dimethyl-2H-indazol-5-yl)-4-methyl-6-(4-azaspiro[2.5]octan-7-yl)pyrido[4,3-d]pyrimidin-5(6H)-one] has a pIC50 (HTT; [2]) of 6.00 to 7.00, a GI50 [1] of 100 to 1000 nM and a pIC50 (Target C; [4]) of 6.00 to 7.00.
`Cc1cn2nc(-c3ccc4c(=O)n(C5C[C@@H](C)N[C@H](C)C5)ncc4n3)cc(C)c2n1` (stereo in doubt) [Compound 1537, 2-(2,8-dimethylimidazo[1,2-b]pyridazin-6-yl)-6-[(2R,6R)-2,6-dimethyl-4-piperidyl]pyrido[2,3-d]pyridazin-5-one] was tested, and the pIC50 (HTT; [5]) was 6.00 to 7.00, the pIC50 (SMN2 mRNA; [3]) was > 7.00 and the GI50 [1] was 100 to 1000 nM. The pIC50 (Target C; [4]) was 6.00 to 7.00.
`Cn1cc2cc(-c3ccc4c(c3)CCN(C3CCNCC3)C4=O)cc(F)c2n1` [Compound 225] was tested, and the pIC50 (HTT; [5]) was 5.00 to 6.00, the pIC50 (SMN2 mRNA; [6]) was < 5.00 and the GI50 [1] was 1000 to 10000 nM. For the same molecule, the pIC50 (Target C; [7]) was < 5.00.
`Cc1cn2nc(-c3ccc4c(=O)n([C@@H]5CCN(C)C6(CC6)C5)ncc4n3)cc(C)c2n1` [Compound 1534] was tested, and the pIC50 (HTT; [2]) was > 7.00, the pIC50 (SMN2 mRNA; [3]) was > 7.00 and the GI50 [1] was 100 to 1000 nM. The pIC50 (Target C; [4]) was > 7.00.
`Cc1cc(-c2cc(F)c3c(=O)n(C4CCNCC4)cnc3c2)cc2cn(C)nc12` [Compound 232] was tested, and the pIC50 (HTT; [5]) was > 7.00, the pIC50 (SMN2 mRNA; [6]) was > 7.00 and the GI50 [1] was 100 to 1000 nM. It also gave a pIC50 (Target C; [7]) of 6.00 to 7.00.
With `Cc1c(O)c(-c2ncc3c(=O)n([C@H]4CCNC5(CC5)C4)ccc3n2)cc2cn(C)nc12` [Compound 1512] the pIC50 (HTT; [2]) was > 7.00, the GI50 [1] was 100 to 1000 nM and the pIC50 (Target C; [4]) was 6.00 to 7.00.
